The source of these data is patent US20060052326A1, “Werner's syndrome helicase as a target for anti -HIV/AIDS therapy” (priority 2004, published 2006).

What all share (format): cell-based
The subject of series [1] is HIV-1 LTR. The series can be described thus: HIV-1 LTR-luciferase reporter assay in co-transfected HeLa cells. The following applies: for effect on basal HIV-1 LTR transcriptional activity (in words): absence of Tat. How it is done:
To determine whether the WRN or BLM helicases influence HIV-1 transcriptional activity and viral replication, HeLa cells were co-transfected with an HIV-1 LTR-luciferase reporter plasmid (0.5 μg), RSV-HIV-1 Tat (0.5 μg), and increasing amounts of CMV-WRN or CMV-BLM expression constructs (0.25, 0.5, 1.0 μg). Following transfection, the cells were lysed by repeated freeze-thawing and luciferase assays were performed using equivalent amounts of total cellular proteins.
Next, an assay was performed to determine whether WRN-associated helicase activity is required for WRN-mediated trans-activation from the HIV-1 LTR. HeLa cells were co-transfected as in A with the HIV-1 LTR-luciferase reporter plasmid (0.5 μg), RSV-HIV-1 Tat (0.5 μg), or increasing amounts of CMV-WRN and CMV-WRNK577M (a trans-dominant negative helicase-defective mutant) (0.25, 0.5, 1.0 μg) in the absence of HIV-1 Tat expression. Results shown in FIG. 3B are averages from duplicate assays and error bars representing standard deviations between samples are provided.

The test system of the next series is HIV-1 LTR^ΔκB. The series can be described thus: HIV-1 LTR^ΔκB-luciferase mutant reporter assay in co-transfected HeLa cells. The following applies: for transcription from the HIV-1 LTR^ΔκB-luciferase construct (in words): absence of Tat. How it is done: To determine whether the TAR-RNA stem-loop secondary structure is sufficient to support WRN-mediated LTR trans-activation, HeLa cells were co-transfected with an HIV-1 LTR^ΔκB luciferase mutant reporter construct, lacking upstream NF-κB-responsive enhancer sequences (transcription from this construct is principally regulated at the level of elongation by TAR-RNA), RSV-HIV-1 Tat, or increasing amounts of CMV-WRN or CMV-WRNK577M (0.25, 0.5, 1.0 μg). Luciferase assays were performed as described using equivalent amounts of total cellular proteins.
The next experiment was undertaken to determine whether interactions with the Tat protein influence WRN's ability to trans-activate the HIV-1 LTR. […] All experiments were performed in duplicate or triplicate and error bars representative of standard deviations are shown in FIG. 4C.
For orientation: Reporter assays use an easily measured gene product as a stand-in for the process of interest.

The test system of series [2] is HIV-1 LTR. The series can be described thus: HIV-1 LTR-luciferase / tk-renilla normalized reporter assay in immortalized WRN^-I- fibroblasts. The following applies: highest concentration of RSV-HIV-1 Tat. How it is done:
In order to determine whether the WRN helicase is an essential cofactor for HIV-1 transcription and virus replication, basal and Tat-activated LTR-driven transcription were measured in WRN^-I-fibroblasts. These fibroblasts were obtained from Werner's syndrome patients and lack a functional WRN helicase protein (Moser M J et al., Nucleic Acids Res. 28:648-654).
Therefore, we co-transfected immortalized WRN^-I- fibroblasts with a tk-renilla luciferase reporter plasmid (which produces red luminescence as a result of renilla luciferase expression driven by the Herpes Simplex Virus thymidine kinase (tk) minimal gene promoter)(0.5 μg) and an HIV-1 LTR-luciferase reporter construct (which produces green luminescence as a result of firefly luciferase expression driven by the HIV-1 LTR) (0.5 μg), and increasing amounts of RSV-HIV-1 Tat or RSV-HIV-1 TatK28A/K50A (0.15, 0.25, 0.5 μg) in the absence or presence of the trans-dominant negative CMV-WRNK577M mutant (0.5, 1.0 μg). The CMV-WRNK577M trans-dominant-negative helicase-defective mutant was co-expressed in certain experiments to inhibit Tat-activated HIV-1 LTR transcription and endogenous WRN functions in HeLa cells (Bai Y et al., Hum. Genet. 113:337-347). […]

The next series relates to HIV-1 LTR^ΔNFκB/ΔTAR. The series can be described thus: HIV-1 LTR^ΔNFκB/ΔTAR-luciferase double-mutant reporter assay in HeLa cells. An excerpt: HeLa cells were co-transfected as in A with a double-mutant, HIV-1 LTR^ΔNFκB/ΔTAR-luciferase reporter plasmid, deleted for κB-responsive elements and TAR-RNA sequences, RSV-HIV-1 Tat, CMV-WRN, or CMV-BLM.
Series [3] relates to HIV-1 LTR. The series can be described thus: HIV-1 LTR-luciferase reporter assay in Jurkat E6.1 T-cells. The following applies: Jurkat E6.1 lymphocytes. How it is done: To determine the influence of the WRN helicase upon HIV-1 LTR transcriptional activation in CD4^+ lymphocytes, Jurkat E6.1 T-cells were co-transfected with HIV-1 LTR-luciferase (0.5 μg), RSV-HIV-1 Tat (0.5 μg), and increasing amounts of CMV-WRN or CMV-WRNK577M, which expresses a trans-dominant negative helicase-defective mutant (0.25, 0.5, 1.0 μg). Following transfection, the cells were lysed by repeated freeze-thawing and luciferase assays were performed, in duplicate, using equivalent amounts of total cellular proteins.

Series [4] deals with HIV-1 LTR. The series can be described thus: HIV-1 LTR-luciferase / tk-renilla normalized reporter assay in HeLa cells. The following applies: for Tat-activated HIV-1 LTR luciferase activity with or without WRNK577M: highest concentration of WRNK577M versus Tat alone. The protocol:
Therefore, we co-transfected immortalized WRN^-I- fibroblasts with a tk-renilla luciferase reporter plasmid (which produces red luminescence as a result of renilla luciferase expression driven by the Herpes Simplex Virus thymidine kinase (tk) minimal gene promoter)(0.5 μg) and an HIV-1 LTR-luciferase reporter construct (which produces green luminescence as a result of firefly luciferase expression driven by the HIV-1 LTR) (0.5 μg), and increasing amounts of RSV-HIV-1 Tat or RSV-HIV-1 TatK28A/K50A (0.15, 0.25, 0.5 μg) in the absence or presence of the trans-dominant negative CMV-WRNK577M mutant (0.5, 1.0 μg). The CMV-WRNK577M trans-dominant-negative helicase-defective mutant was co-expressed in certain experiments to inhibit Tat-activated HIV-1 LTR transcription and endogenous WRN functions in HeLa cells (Bai Y et al., Hum. Genet. 113:337-347). Samples were normalized to yield approximately equivalent renilla-luciferase expression to control for transfection efficiencies and any differences in overall transcription levels between WRN^-I- fibroblasts and HeLa cells. Normalized extracts were then compared to determine basal-level and Tat-activated HIV-1 LTR-luciferase transcription.

The subject of the next series is H9HIV-1IIIB lymphocytes. The series can be described thus: Immunofluorescence-microscopy of p24^Gag in transfected HIV-1-infected H9 lymphocytes. The following applies: PHA/hIL-2 stimulated, Myc-epitope-tagged protein over-expression. The protocol:
Immunofluorescence-microscopy was next performed to directly assess whether over-expression of Myc-epitope-tagged WRN or the trans-dominant-negative WRNK577M mutant influence HIV-replication and production of p24^Gag in infected H9HIV-1IIIB lymphocytes. HIV-1-infected H9 lymphocytes were transfected with increasing amounts of CMV-WRN, CMV-WRNK577M, or CβF empty vector (0.12, 0.25 μg) and were stimulated with PHA and hIL-2 as described above. Immunofluorescence-microscopy was performed to determine the influence of WRN or WRNK577M over-expression upon production of HIV-1 p24^Gag and viral replication. Expression of Myc-epitope-tagged WRN and WRNK577M proteins in transfected H9 cells was detected using a rabbit anti-Myc polyclonal antibody (Moser M J et al., Nucleic Acids Res. 28:648-654). Production of intracellular HIV-1 p24^Gag capsid protein was detected using a monoclonal anti-HIV-1 p24^Gag antibody. DAPI-staining was performed to visualize nuclei.

Series [5] relates to HIV-1IIIB-infected H9 lymphocytes. The series can be described thus: Intracellular p24^Gag immunoblotting in transfected HIV-1IIIB-infected H9 lymphocytes. As to conditions: PHA (10 ng/ml) and hIL-2 (50 U/ml) stimulated, over-expression. The protocol:
The influence of over-expressing wild-type WRN, or trans-dominant-negative WRNK577M, proteins upon HIV-1 replication and the production of intracellular viral structural components was tested in HIV-infected H9 lymphocytes that were stimulated with PHA (10 ng/ml) and human IL-2 (50 U/ml) . HIV-1IIIB-infected H9 lymphocytes were transfected with increasing amounts of CMV-WRN, CMV-WRNK577M, or CMV-green fluorescent protein (GFP) negative control (1.0, 3.0 μg) and then stimulated with PHA (10 ng/ml) and hIL-2 (50 U/ml) to induce HIV-1 replication. The HIV-1 p24^Gag major capsid and cellular actin proteins were detected by immuno-blotting using appropriate primary antibodies. Protein expression was quantified using a densitometer and is represented graphically below immunoblotting results shown in FIG. 7A.
On the technique in general: In western blotting, separated proteins are transferred to a membrane and probed.

Where [6] appears, read: highest concentration of RSV-HIV-1 Tat.
Setting [7] is: co-expression with Tat, increasing amounts.

As to “BLM helicase: BLM DNA-helicase expressed from CMV-BLM construct”, in the series with HIV-1 LTR [1], the “effect on basal HIV-1 LTR transcriptional activity (in words)” value was “does not affect basal HIV-1 LTR transcriptional activity”. In addition, in the series on HIV-1 LTR [1] (co-expression with Tat), the “effect on Tat-mediated transcriptional activation (in words)” value is on record as “does not significantly influence Tat-mediated transcriptional activation”. Further, in the series on HIV-1 LTR^ΔκB, the “transcription from the HIV-1 LTR^ΔκB-luciferase construct (in words)” value was “no significant influence”.
In the case of “Tat: HIV-1 viral trans-activator protein, 81-101 amino acid residues, expressed from RSV construct”, the “Tat trans-activation of HIV-1 LTR” value in the series with HIV-1 LTR [2] worked out at 0 fold; with HIV-1 LTR [4] (setting [6]) it was 22 fold. For the same molecule, the “Tat-activated HIV-1 LTR luciferase activity” value is recorded as 340 RLUs in the series with HIV-1 LTR [2] and 14,834,412 RLUs with HIV-1 LTR [4] (setting [6]). For the same molecule, the “transcriptional activation of reporter deleted for κB-responsive elements and TAR-RNA” value in the series on HIV-1 LTR^ΔNFκB/ΔTAR is “completely abrogated transcriptional activation”. Moreover, the “Tat-mediated trans-activation from the HIV-1 LTR^ΔκB-luciferase reporter” value in the series on HIV-1 LTR^ΔκB turned out to be 6.5 fold. The “transcriptional activation from the HIV-1 LTR” value in the series on HIV-1 LTR [3] (Tat alone) is recorded as “approximately 250 fold”. The “Tat-activated HIV-1 LTR luciferase activity with or without WRNK577M” value in the series with HIV-1 LTR [4] is listed as 14,518,374 RLUs.
As to WRNK577M, the “effect on basal HIV-1 LTR transcriptional activity (in words)” value in the series with HIV-1 LTR [1] is “represses basal transcription to levels below base-line”. Besides, the “intracellular p24^Gag (immunofluorescence)” value with H9HIV-1IIIB lymphocytes was “markedly reduced levels of p24^Gag”. Also, in the series with HIV-1 LTR^ΔκB, the “transcription from the HIV-1 LTR^ΔκB-luciferase construct (in words)” value was “did not significantly promote transcription”. The “effect on Tat's transcriptional activation from the HIV-1 LTR (in words)” value with HIV-1 LTR [3] (setting [7]) was “repressed nearly one-half of Tat's transcriptional activation”. Moreover, in series [5], the “intracellular production of p24^Gag capsid protein / HIV-1 replication (immunoblot)” value is “represses production of the p24^Gag major capsid protein”. Also, the “Tat-activated HIV-1 LTR luciferase activity with or without WRNK577M” value in the series with HIV-1 LTR [4] is on record as 5,457,345 RLUs.
For the molecule “WRN helicase: wild-type Werner's syndrome helicase protein, 1432 amino acid residues, expressed from CMV construct”, the “effect on basal HIV-1 LTR transcriptional activity (in words)” value in the series on HIV-1 LTR [1] is given as “transcriptionally activates the HIV-1 LTR in a dose-dependent manner”. The “Tat-mediated LTR trans-activation on co-expression of helicase” value in the series with HIV-1 LTR [1] (co-expression with Tat, increasing amounts of construct) is around 60 fold. The “transcriptional activation from the HIV-1 LTR” value in the series on HIV-1 LTR [1] (wild-type LTR, factor expressed alone) is recorded as “approx. 10 fold”. In the series with H9HIV-1IIIB lymphocytes, the “intracellular p24^Gag (immunofluorescence)” value is reported as “increased intracellular p24^Gag”. For the same molecule, the “transcriptional activation of reporter deleted for κB-responsive elements and TAR-RNA” value in the series on HIV-1 LTR^ΔNFκB/ΔTAR is recorded as “completely abrogated transcriptional activation”. In the series with HIV-1 LTR^ΔκB, the “transcription from the HIV-1 LTR^ΔκB-luciferase construct (in words)” value is “to a level approximately one-half that observed for Tat”. In the series with HIV-1 LTR [3] (setting [7]), the “trans-activation by Tat on co-expression of helicase” value is “approximately 395 fold”. Besides, the “intracellular production of p24^Gag capsid protein / HIV-1 replication (immunoblot)” value in series [5] is listed as “significantly higher intracellular production of the p24^Gag major viral capsid protein”.

B1: TatK28A/K50A (protein)
chain: MEPVDPRLEPWKHPGSQPKTACTNCYCAKCCFHCQVCFITKALGISYGRAKRRQRRRAHQNSQTHQASLSKQPTSQPRGDPTGPKE
Regarding B1, in the series on HIV-1 LTR^ΔκB (co-expression with CMV-WRN), the “effect on WRN-mediated trans-activation from the HIV-1 TAR-RNA” value is “inhibited WRN-mediated trans-activation”.
